Patent EP0429856A2, “Pharmaceutical preparation containing a metal salt of ibuprofen and process for making same” (Dolorgiet GmbH & Co. KG, priority 1989, dated 1991)

Experiment: Solubility of ibuprofen salts in saturated solutions at room temperature (HPLC, UV detection)
Source text: Zur Bestimmung der Löslichkeit der Ibuprofen-Salze werden bei Raumtemperatur gesättigte Lösungen hergestellt. Ein aliguoter Teil dieser Lösungen wird mit einem mit der Lösung mischbaren Lösungsmittel verdünnt und der Gehalt an Ibuprofen mittels HPLC über eine Reversed-Phase-Säule und UV-Detektion bestimmt.

[1] = 1,2-Propandiol/Glycerin/Wasser (2/4/3;v/v/v)
[2] = 1,2-Propandiol/Polyethylenglykol 400/Wasser (5/3/6;v/v/v)
[3] = Cabrylic/Capric Triglyceride (Miglyol 810)
[4] = Caprylic/Capric Triglyceride (Miglyol 812)
[5] = Ethanol/1,2-Propandiol/Wasser (1/4/4;v/v/v)
[6] = Polyoxyethylen-(7)-glycerin-kokosnußöfettsäure-ester
[7] = Polyoxyethylierte Olein-Glyceride (Labrafil M 1944 CS)

| Substance | Löslichkeit von Ibuprofen-Salzen bei Raumtemperatur (1,2-Propandiol) | Löslichkeit von Ibuprofen-Salzen bei Raumtemperatur [1] | Löslichkeit von Ibuprofen-Salzen bei Raumtemperatur [2] | Löslichkeit von Ibuprofen-Salzen bei Raumtemperatur [3] | Löslichkeit von Ibuprofen-Salzen bei Raumtemperatur [4] | Löslichkeit von Ibuprofen-Salzen bei Raumtemperatur (Ethanol) | Löslichkeit von Ibuprofen-Salzen bei Raumtemperatur [5] | Löslichkeit von Ibuprofen-Salzen bei Raumtemperatur (Glycerin) | Löslichkeit von Ibuprofen-Salzen bei Raumtemperatur (Glycerinmonoricinoleat) | Löslichkeit von Ibuprofen-Salzen bei Raumtemperatur (Isopropylmyristat) | Löslichkeit von Ibuprofen-Salzen bei Raumtemperatur (Paraffinum supl.) | Löslichkeit von Ibuprofen-Salzen bei Raumtemperatur (Polyethylenglykol 400) | Löslichkeit von Ibuprofen-Salzen bei Raumtemperatur [6] | Löslichkeit von Ibuprofen-Salzen bei Raumtemperatur [7] | Löslichkeit von Ibuprofen-Salzen bei Raumtemperatur (Wasser) |
| --- | --- | --- | --- | --- | --- | --- | --- | --- | --- | --- | --- | --- | --- | --- | --- |
| Aluminiumdiibuprofen (1 : 2) [Ibuprofen-Al (2 : 1)] | 0,8 mg Ibuprofen/ml | < 0,1 mg Ibuprofen/ml | < 0,1 mg Ibuprofen/ml | 0,5 mg Ibuprofen/ml | 0,3 mg Ibuprofen/ml | 2 mg Ibuprofen/ml | < 0,1 mg Ibuprofen/ml | < 0,1 mg Ibuprofen/ml | 4,5 mg Ibuprofen/ml | 1 mg Ibuprofen/ml | < 0,1 mg Ibuprofen/ml | 2 mg Ibuprofen/ml | 6 mg Ibuprofen/ml | 4 mg Ibuprofen/ml | < 0,1 mg Ibuprofen/ml |
| Ibuprofen-Magnesiumsalz [Ibuprofen-Mg] | 160 mg Ibuprofen/ml | 250 mg Ibuprofen/ml | 125 mg Ibuprofen/ml | 35 mg Ibuprofen/ml | 17 mg Ibuprofen/ml | 500 mg Ibuprofen/ml | 330 mg Ibuprofen/ml | 8 mg Ibuprofen/ml | 450 mg Ibuprofen/ml | 260 mg Ibuprofen/ml | 0,4 mg Ibuprofen/ml | 40 mg Ibuprofen/ml | 480 mg Ibuprofen/ml | 380 mg Ibuprofen/ml | 7 mg Ibuprofen/ml |
